# Target: T1, Matrix-Metalloproteinase 9 (MMP9) (Homo sapiens, UniProt P14780)
# T1 construct: 5 μl sample (active MMP9 at 2 μg/ml)
# Experiment: Fluorogenic peptide cleavage assay with active MMP9 (kinetic fluorescence scan)
# Format: biochemical
# Conditions: active MMP9 at 2 μg/ml, 5 μl of 0.2 mM peptide per well; excitation 328 nm, emission 400 nm; kinetic scan 30 min; FIG. 3
# Description: 2 flurogenic peptides with 1 (PCL0174 A4) or 2 (PCL0174 B1) cleavable sequences respectively were investigated with sensitivity towards Matrix-Metalloproteinase 9 (MMP9).
# 96-well assay plate, black polystyrene, Costar®, Corning Inc. (Cat. #3925, lot #25011023)
# MMP buffer, Aq. Solution of 50 mM Tris, 100 mM sodium chloride, 10 mM Calcium Chloride, 50 μM […] zinc chloride, 0.025% Brij 35, 0.05% sodium azide at pH 8.0.
# Peptides PCL0174 A4 and PCL0174 B1 at a molar concentration of 8 mM
# Testing Method • Peptides at a stock of 8 mM were diluted to 0.2 mM in MMP buffer • 2 μl+78 μl MMP buffer • 5 μl sample (active MMP9 at 2 μg/ml)+190 μl MMP buffer added to well • 5 μl of 0.2 mM peptide added per well • Read on a Fluorometer using the following settings: • Excitation wavelength: 328 nm, bandwidth 5 nm • Emission wavelength: 400 nm, bandwidth 5 nm • Kinetic scan: 30 min, interval 1 min
# T1 sequence (P14780 107-707 limits assumed, species assumed): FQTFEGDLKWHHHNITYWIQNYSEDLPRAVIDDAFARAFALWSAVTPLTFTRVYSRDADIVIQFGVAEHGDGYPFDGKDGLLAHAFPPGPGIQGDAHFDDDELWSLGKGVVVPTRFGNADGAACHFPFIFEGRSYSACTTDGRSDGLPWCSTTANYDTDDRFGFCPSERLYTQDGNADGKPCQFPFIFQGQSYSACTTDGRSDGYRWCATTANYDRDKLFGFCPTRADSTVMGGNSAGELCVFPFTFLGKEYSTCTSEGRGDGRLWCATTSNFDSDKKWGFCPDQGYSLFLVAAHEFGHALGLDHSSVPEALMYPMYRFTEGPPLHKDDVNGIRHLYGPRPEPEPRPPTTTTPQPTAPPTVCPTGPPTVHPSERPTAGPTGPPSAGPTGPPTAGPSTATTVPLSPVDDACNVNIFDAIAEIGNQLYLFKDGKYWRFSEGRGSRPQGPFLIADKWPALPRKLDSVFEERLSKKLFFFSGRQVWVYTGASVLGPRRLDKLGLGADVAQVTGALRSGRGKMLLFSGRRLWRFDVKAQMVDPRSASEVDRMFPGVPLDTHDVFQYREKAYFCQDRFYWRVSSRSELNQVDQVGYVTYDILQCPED
row,running time at which the same result (signal) is achieved [min],Substance
1,30,Lys(Mc Coumarin)-[GPQGIFGQ]-Lys(Dnp)G [1 CS]
2,8,Lys(Mc Coumarin)-[GPQGIFGQ])-[GPQGIFGQ]-Lys(Dnp)G [2 CS]
